Data on 23 compounds can be found in ChEMBL document CHEMBL4411274, “Recent advances of tetrazole derivatives as potential anti-tubercular and anti-malarial agents” (Eur J Med Chem, 2019).

≈ marks a conversion by molar mass, not a printed value.

By IC50 is commonly meant the midpoint of a concentration-inhibition curve. Usually MIC stands for the smallest concentration in the dilution series that meets the test's criterion for growth inhibition.

The subject of assay [1] is Plasmodium falciparum. In words: Antimalarial activity against ring-stage multidrug-resistant Plasmodium falciparum Dd2 preincubated for 6 hrs followed by compound wash and measured after 66 hrs by Giemsa-staining based light microscopic analysis. The assay is classed as functional, organism-based.
The test system of assay [2] is Plasmodium falciparum. In words: Antimalarial activity against ring-stage chloroquine-susceptible Plasmodium falciparum 3D7 preincubated for 6 hrs followed by compound wash and measured after 66 hrs by Giemsa-staining based light microscopic analysis. It is filed as functional, organism-based.
Assay [3] concerns Mycobacterium tuberculosis. In words: Antibacterial activity against Mycobacterium tuberculosis H37Rv by MABA. The assay is classed as functional. A general note: The colour change of resazurin is a common sign of viable cells or microbes.
The test system of assay [4] is Mycobacterium tuberculosis. In words: Antibacterial activity against Mycobacterium tuberculosis H37Rv. The assay is classed as functional.
Assay [5] has as its system Mycobacterium tuberculosis. In words: Antibacterial activity against Mycobacterium tuberculosis H37Rv by resazurin dye-based assay. The assay is classed as functional.
Assay [6] relates to Mycobacterium avium. In words: Antibacterial activity against Mycobacterium avium CNCTC My 330/88. It is filed as functional.
For assay [7], the system named is Mycobacterium kansasii. In words: Potency index, ratio of isoniazid MIC to compound MIC for Mycobacterium kansasii CNCTC My 235/80. The assay is classed as functional.
The test system of assay [8] is Mycobacterium kansasii. In words: Antibacterial activity against Mycobacterium kansasii isolate 6509/96. The assay is classed as functional.
For assay [9], the system named is Mycobacterium avium. In words: Potency index, ratio of isoniazid MIC to compound MIC for Mycobacterium avium CNCTC My 330/88. The assay is classed as functional.
For assay [10], the system named is Mycobacterium kansasii. In words: Antibacterial activity against Mycobacterium kansasii CNCTC My 235/80. It is filed as functional.
Assay [11] concerns Mycobacterium tuberculosis. In words: Antibacterial activity against Mycobacterium tuberculosis CNCTC My 331/88. The assay is classed as functional.
Assay [12] has as its system Mycobacterium tuberculosis. In words: Antibacterial activity against Mycobacterium tuberculosis H37Rv after 5 days. The conditions noted are these: 120 h. The assay is classed as functional.
Assay [13] has as its system Plasmodium falciparum. In words: Antimalarial activity against chloroquine resistant Plasmodium falciparum FcB1R. It is filed as functional, organism-based.

Take `C[C@H]1[C@H](OC(=O)CCC(=O)O)O[C@@H]2O[C@@]3(C)CC[C@H]4[C@H](C)CC[C@@H]1[C@@]24OO3` [ARTESUNATE]: the IC50 worked out at 4.6 nM with Plasmodium falciparum [1] and 5.1 nM in the assay on Plasmodium falciparum [2]. Regarding `CC[C@@H](CO)NCCN[C@@H](CC)CO` [ETHAMBUTOL], the MIC is 1.56 µg/mL (≈ 7.64 µM) in assay [3] and 2 µg/mL (≈ 9.79 µM) in assay [4]. For the compound `C[C@@H]1CC[C@H]2[C@@H](C)C(=O)O[C@@H]3O[C@@]4(C)CC[C@@H]1[C@]32OO4` [ARTEMISININ], the IC50 stood at 2.5 nM with Plasmodium falciparum [1] and 4 nM in the assay on Plasmodium falciparum [2]. Take `CO[C@H]1/C=C/O[C@@]2(C)Oc3c(C)c(O)c4c(O)c(c(/C=N/N5CCN(C)CC5)c(O)c4c3C2=O)NC(=O)/C(C)=C\C=C\[C@H](C)[C@H](O)[C@@H](C)[C@@H](O)[C@@H](C)[C@H](OC(C)=O)[C@@H]1C` [RIFAMPIN]: the MIC in [4] is 0.25 to 40 µg/mL (≈ 0.304 to 48.6 µM); in assay [5], 0.006 µg/mL (≈ 0.00729 µM). For `Cn1nnc(NCC2CCC3(CC2)OOC2(O3)C3CC4CC(C3)CC2C4)n1` (stereo not given), the IC50 in the assay with Plasmodium falciparum [1] came out at 2.1 nM; with Plasmodium falciparum [2], 2.9 nM.

Turning to `Clc1ccc(-n2nnnc2SCc2ccccc2)cc1Cl`, the minimal inhibitory concentration (MIC) with Mycobacterium avium [6] was in the range of 8 to 250 µg/mL (≈ 23.7 to 741 µM); against Mycobacterium kansasii [8], 8 to 62.5 µg/mL (≈ 23.7 to 185 µM); in the assay with Mycobacterium kansasii [10] it was 8 to 250 µg/mL (≈ 23.7 to 741 µM); in [11] it was 8 to 62.5 µg/mL (≈ 23.7 to 185 µM). The Ratio in the assay with Mycobacterium kansasii [7] and in the assay on Mycobacterium avium [9] was above 4 each time. For `Cn1nnnc1SC1=CS(=O)(=O)c2ccccc21`, the MIC in [12] came out at 2.6 µM (≈ 0.729 µg/mL). For the compound `CC1=C(CCc2nnnn2CCCCC#N)C(=O)c2ccccc2C1=O`, the IC50 with Plasmodium falciparum [13] fell in the range of 900 to 1400 nM.

Turning to `Cc1ccc2c(c1)cc(C1C3=C(CC(C)(C)CC3=O)N(c3ccc(F)cc3)C3=C1C(=O)CC(C)(C)C3)c1nnnn12`, 50 µg/mL (≈ 91 µM) was the least that counted as inhibitory in assay [4] (MIC). In turn, `Cc1ccc(C2C(Cl)C(=O)N2NC(=O)Cn2nnnc2-c2ccccc2)cc1` (stereo not given) registered a minimal inhibitory concentration (MIC) in [5] above 6.25 µg/mL. Turning to `CN[C@@H]1[C@H](O[C@H]2[C@H](O[C@H]3[C@H](O)[C@@H](O)[C@H](N=C(N)N)[C@@H](O)[C@@H]3N=C(N)N)O[C@@H](C)[C@]2(O)C=O)O[C@@H](CO)[C@H](O)[C@H]1O` [STREPTOMYCIN], in assay [4], the MIC came out at 4 µg/mL (≈ 6.88 µM). As to `C1C2CC3CC1CC(C2)C31OOC2(CCC(Nc3nnn[nH]3)CC2)O1` (stereo not given), the IC50 in the assay on Plasmodium falciparum [1] stood at 2.5 nM; in the assay with Plasmodium falciparum [2], 2.8 nM. In the case of `c1ccc(-n2nnnc2OCC2CCC3(CC2)OOC2(O3)C3CC4CC(C3)CC2C4)cc1` (stereo not given), the IC50 in the assay on Plasmodium falciparum [1] and in the assay on Plasmodium falciparum [2] was 2.1 to 24.4 nM in each case. Turning to `NNC(=O)c1ccncc1` [ISONIAZID], the MIC with Mycobacterium kansasii [8] worked out at 4 µg/mL (≈ 29.2 µM); in assay [4] it was 0.2 µg/mL (≈ 1.46 µM); in assay [5], 0.063 µg/mL (≈ 0.459 µM); in assay [11], 0.5 µg/mL (≈ 3.65 µM). In turn, `O=C(Cn1nnnc1-c1ccccc1)NN1C(=O)C(Cl)C1c1ccc(Br)cc1` (stereo not given) displayed an MIC in [5] above 6.25 µg/mL. As to `CC1=C(CCc2nnnn2CCCC#N)C(=O)c2ccccc2C1=O`, in the assay with Plasmodium falciparum [13], the IC50 fell in the range of 900 to 1400 nM.

As to `CC1=C(CCc2nnnn2CCCCCC#N)C(=O)c2ccccc2C1=O`, the IC50 with Plasmodium falciparum [13] fell in the range of 900 to 1400 nM. As to `C1C2CC3CC1CC(C2)C31OOC2(CCC(Nc3nnn[nH]3)CC2)OO1` (stereo not given), the IC50 in the assay with Plasmodium falciparum [1] is 43.5 nM; with Plasmodium falciparum [2], 63 nM. In assay [5], `COc1ccc(C2C(Cl)C(=O)N2NC(=O)Cn2nnnc2-c2ccccc2)cc1` (stereo not given) gave an MIC of 0.156 µg/mL (≈ 0.378 µM).

Turning to `CN(C)c1ccc(C2C(Cl)C(=O)N2NC(=O)Cn2nnnc2-c2ccccc2)cc1` (stereo not given), inhibition of growth in [5] (MIC) required 0.156 µg/mL (≈ 0.366 µM).

For the compound `C[C@H]1[C@@H](O)O[C@@H]2O[C@@]3(C)CC[C@H]4[C@H](C)CC[C@@H]1[C@@]24OO3` [ARTENIMOL], the values for the IC50 with Plasmodium falciparum [1] and in the assay on Plasmodium falciparum [2] were 4.2 nM and 4.7 nM, respectively. In assay [4], `Cc1ccc(-n2c(-c3cc4cc(Cl)ccc4n4nnnc34)nc(-c3ccccc3)c2-c2ccccc2)cc1` gave an MIC of 25 µg/mL (≈ 48.7 µM). In the case of `c1cnc(-c2nn3nnnc3o2)cn1`, in [4], the MIC was determined as 50 µg/mL (≈ 264 µM).
